Assay results: patent US20180117000A1, “ENERGY METABOLIC ACTIVATING AGENT FOR MUSCLE CELLS” (ORYZA OIL & FAT CHEMICAL CO., LTD., priority 2015, published 2018)
“Also recorded” adds a separate entry of the source.

What was measured:
[1] = tested on: sugar transporter (GLUT4); experiment: Evaluation of sugar-transporter (GLUT4) gene-expression promotion: GLUT4 mRNA by RT-PCR in C2C12; assay type: cell-based, Mouse; conditions: Compounds at 1 μM or 10 μM, C2C12 myoblast cells, cultured one week, GAPDH endogenous control, vs DMSO control, FIG. 2
Method: Mouse-muscle myoblast-cell lines C2C12 (cultured in DMEM FCS10%) were seeded in 24 well plates for determining the mRNA expression (1×10^4 cells/ml) and then were cultured for 24 hours. […] Then, the black-ginger extract and the separated fractions were cultured for one week. For control, the DMSO was added to the culture media in concentration of 0.1% (v/v). After being cultured for one week, the cells were collected, and the RNA was extracted. Regarding the collected RNA, by using RT-PCR (reverse-transcription polymerase chain-reaction), the expressed mRNA amount of the sugar transporter (GLUT4) was identified. At that time, as an endogenous-control, GAPDH (Glyceraldehyde 3-phosphate dehydrogenase) was used.

PGC-1α = experiment: Evaluation of the PGC-1α-expression promoting effect: PGC-1α mRNA by RT-PCR in C2C12; assay type: cell-based, Mouse; conditions: Compounds at 1 μM or 10 μM, C2C12 myoblast cells, cultured one week, GAPDH endogenous control, vs DMSO control, FIG. 3
Method: Mouse-muscle myoblast-cell lines C2C12 (cultured in DMEM FCS10%) were seeded in 24 well plates for determining the mRNA expression (1×10^4 cells/ml) and then were cultured for 24 hours. After 24 hours, the black-ginger extract (10 μg/mL) or the separated fractions (Compounds 1-8) were added to the culture media (DMEM FCS 1%) for differentiation induction until the concentration became 1 μM or 10 μM (i.e. until the concentration of the sample dissolved in each DMSO (dimethyl sulfoxide) became 0.1% (v/v) regarding the culture media). Then, the black-ginger extract and the separated fractions were cultured for one week. For control, the DMSO was added to the culture media in concentration of 0.1% (v/v). After being cultured for one week, the cells were collected, and the RNA was extracted. Regarding the collected RNA, by using RT-PCR (reverse-transcription polymerase-chain reaction), the expressed mRNA amount of the PGC-1α was identified. At that time, as an endogenous-control, GAPDH (Glyceraldehyde 3-phosphate dehydrogenase) was used.

Compound	mRNA expression of the sugar transporter (GLUT4) [1]	mRNA expression of the PGC-1α (PGC-1α)
COc1cc(O)c2c(=O)cc(-c3ccccc3)oc2c1 [Compound 2, Techtochrysin]	Significant expressed-promotion increases	Significant increases; also recorded: stronger activity
COc1cc(O)c2c(=O)c(OC)c(-c3ccc(OC)c(OC)c3)oc2c1 [Compound 4, retusine]	–	lower activity
COc1cc(OC)c2c(=O)cc(-c3ccccc3)oc2c1 [Compound 8, 5,7-dimethoxyflavone]	Significant expressed-promotion increases	Significant increases; also recorded: stronger activity
COc1ccc(-c2oc3cc(OC)cc(O)c3c(=O)c2OC)cc1 [Compound 3, 3,7,4′-Trimethylkaempferol]	Significant expressed-promotion increases	–
